Data from ChEMBL document CHEMBL1944507, “Structure-activity relationships for amide-, carbamate-, and urea-linked analogues of the tuberculosis drug (6S)-2-nitro-6-{[4-(trifluoromethoxy)benzyl]oxy}-6,7-dihydro-5H-imidazo[2,1-b][1,3]oxazine (PA-824)” (J Med Chem, 2012).
In brackets after ≈: the same amount, converted by molar mass.

Tested on: Mycobacterium tuberculosis variant bovis
Test: Antimicrobial activity against Mycobacterium bovis
Format: functional

Row | Compound | MIC
1 | O=[N+]([O-])c1cn2c(n1)OC[C@@H](OCc1ccc(OC(F)(F)F)cc1)C2 [PRETOMANID] | 0.167 µM (≈ 0.06 µg/mL)
2 | O=C(Nc1ccc(OC(F)(F)F)cc1)N[C@@H]1COc2nc([N+](=O)[O-])cn2C1 | 0.039 µM (≈ 0.0151 µg/mL)
3 | O=C(NCc1ccc(OC(F)(F)F)cc1)O[C@@H]1COc2nc([N+](=O)[O-])cn2C1 | 0.075 µM (≈ 0.0302 µg/mL)
4 | O=C(N[C@@H]1COc2nc([N+](=O)[O-])cn2C1)OCc1ccc(OC(F)(F)F)cc1 | 0.037 µM (≈ 0.0149 µg/mL)
5 | O=C(Nc1ccc(OC(F)(F)F)cc1)O[C@@H]1COc2nc([N+](=O)[O-])cn2C1 | 0.039 µM (≈ 0.0151 µg/mL)
6 | O=C(N[C@@H]1COc2nc([N+](=O)[O-])cn2C1)c1ccc(OC(F)(F)F)cc1 | 1.34 µM (≈ 0.499 µg/mL)
